Assay results taken from patent EP1983049B1, “Peptides binding to the Lck-SH3 and Hck-SH3 domains” (Forschungszentrum Jülich GmbH, priority 2005, dated 2006).
Where no end group is shown, it is not given here.

Experiments:
Abl SH3 Domäne = Abl SH3 Domäne (Homo sapiens, UniProt P00519); assay: Fluorescence titration (intrinsic tryptophan fluorescence), binding constant; settings: Abl SH3 domain; fluorescence titration, 0,5 µM SH3 domain in PBS, 1mM DDT; each experiment done twice
Source text: (§1) Die Messungen wurden im Wesentlichen wie bei Schweimer K, Hoffmann S, Bauer F, Friedrich U, Kardinal C, Feller SM, Biesinger B, Sticht H. Structural investigation of the bindung of a herpesviral protein to the SH3 domain of tyrosine kinase Lck. Biochemistry. 2002 Apr 23;41(16):5120-30 beschrieben unter Verwendung eines Perkin-Elmer LS 55 Fluoreszenzspektrometers bei einer Anregungswellenlänge von 290 nm und einer Emissionswellenlänge von 345 nm durchgeführt. […] Nach PD1-Zugabe wurde jeweils die resultierende Fluoreszenzänderung aufgezeichnet. Durch eine Kontrolltitration (Hintergrundmessung), bei welcher die Peptidlösung gegen Wasser ersetzt wurde, konnten die Abweichungen der Fluoreszenzweite, welche durch eine sinkende SH3-Endkonzentration während der Titration hervorgerufen wurden, ausgeglichen werden. […] F = Fmin + (([Pges] + [Lges] + Kd)/(2)-sqrt(((([Pges]+[Lges]+Kd))^2)/(4)-[Pges]*[Lges]))*((Fmax-Fmin))/(Pges) [formula]
(§2) Durch nichtlineare Regression mit Fmax und Kd als angepasste Parameter konnten die experimentellen Daten an obige Gleichung angepasst werden.

Lck-SH3 [1] = target: T1, Lck-SH3 (Homo sapiens, UniProt P06239); assay: as above; settings: Lck SH3 domain; fluorescence titration, 0,5 µM free SH3 domain in PBS, 1mM DDT; each experiment done twice
T1 construct: Inkubation der Membran mit dem zu untersuchenden Protein (hier Lck-SH3); made in house
T1 sequence (P06239 61-121 limits assumed): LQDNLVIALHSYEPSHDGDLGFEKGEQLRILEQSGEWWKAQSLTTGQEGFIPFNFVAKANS
Source text: as §1, §2

PI3K SH3 Domäne = PI3K SH3 Domäne (Homo sapiens, UniProt P27986); assay: as above; settings: PI3K SH3 domain; fluorescence titration, 0,5 µM SH3 domain in PBS, 1mM DDT; each experiment done twice
Sequence of PI3K SH3 Domäne (P27986 3-79 limits assumed): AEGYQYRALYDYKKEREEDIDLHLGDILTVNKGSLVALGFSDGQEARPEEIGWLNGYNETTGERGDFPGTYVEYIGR
Source text: as §1, §2

Hck-SH3 = Hck-SH3 (Homo sapiens, UniProt P08631); assay: as above; settings: Hck SH3 domain; fluorescence titration, 0,5 µM SH3 domain in PBS, 1mM DDT; each experiment done twice
Sequence of Hck-SH3 (P08631 78-138 limits assumed): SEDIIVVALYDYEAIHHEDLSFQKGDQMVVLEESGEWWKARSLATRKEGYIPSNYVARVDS
Source text: as §1, §2

Lck-SH3 [2] = target: T1, Lck-SH3; assay: PepSpot membrane substitution analysis, relative Lck binding activity; settings: 7 of 12 positions of PD1-R substituted, 0,5 µg/ml SH3 protein, Fig. 4
Source text: Eine andere Methode, Protein-Protein-Wechselwirkungen zu untersuchen, ist die Benutzung so genannter PepSpot-Membranen. Sie basiert auf der Synthese von immobilisierten Peptiden auf aktivierten Membrane und kann z. B. zur Optimierung der Bindungseigenschaften bereits identifizierter Liganden durch Substitutionsanalyse verwendet werden. Nach der Inkubation der Membran mit dem zu untersuchenden Protein (hier Lck-SH3) und der anschließenden Detektion wird anhand der Spotfärbung eine Interaktion des Proteins mit den entsprechenden immobilisierten Peptiden nachgewiesen. Die Stärke der Spotintensitäten ist ein Maß für die Stärke der Bindung. Eine zusammenfassende Übersicht findet sich bei Reinecke U., Volkmer-Engert R., Schneider-Mergener J. Applikation of peptide arrays prepared by the SPOT-technology. Current Opinion in Biotechnology 2001, 12:59-64.
Für den Immunoassay wurde die PepSpot-Membran über Nacht in 20 ml Blocking Puffer geblockt. Nach einmaligem Waschen mit T-TBS für 10 min wurde die Membran für 3 h mit 0,5 µg/ml SH3 Protein in 20 ml Blocking Puffer inkubiert. Danach wurde die Membran dreimal für je 10 min mit T-TB S gewaschen. […] Die Spot-Intensitäten wurden mit der QuantityOne Software (Bio-Rad, München) ausgewertet Die Analyse der Spot-Intensitäten erfolgte nach Subtraktion des Hintergrundes. […]

GST-Lck-SH3 = target: T2, GST-Lck-SH3 (Homo sapiens, UniProt P06239); assay: anti-Phage-ELISA, relative Lck-SH3 binding activity of phage clones; settings: phage-displayed peptide; detection at 450 nm; Fig. 1; 7 single experiments
T2 construct: rekombinant hergestellte Lck SH3 als Fusion mit Glutathion-S-Transferase (GST-Lck-SH3); made in house
T2 sequence (P06239 61-121 limits assumed): as the sequence (P06239 61-121 limits assumed) above
Source text: Dieser Bindungstest ist ein häufig verwendeter Test zur schnellen Bestimmung relativer Bindungsstarken selektierter Peptide, die hierbei noch physikalisch mit dem Phagen verknüpft vorliegen. Dieser Schritt dient auch zur Eliminierung von (bei dieser Methode nicht selten auftretenden) Phagenvarianten, die z. B. aufgrund ihrer Affinität zur Plastikoberfläche der verwendeten Mikrotiterplatten, angereichert werden und die somit zur Verfälschung der Ergebnisse führen können. Eine grundsätzliche Beschreibung der Methode findet sich z. B. unter Sparks et al. Methods Enzymol. 1995; 255:498-509.
GST-Lck-SH3 Protein wurde in einer Konzentration von 10 µg/ml in Tris-Bis über Nacht bei 4°C in Mikrotiterplatten immobilisiert. Verbleibende Bindungsstellen wurden durch 2-stündige Inkubation mit Blockierungspuffer (Bis-Tris mit 2.% Magermilchpulver) abgesättigt.
In einer anderen Mikrotiterplatte wurden zuerst je 100 µl Suspension der zu testenden Phagenvariante mit 100 µl Blockierungspuffer für 20 Minuten vorinkubiert und erst dann für 1 Stunde zum immobilisierten GST-Lck-SH3 Protein gegeben. Nach einem Waschschritt mit Bis-Tris wurde ein Meerrettich-Peroxidase-konjugierter Antikörper zugegeben und die Platten für eine weitere Stunde inkubiert. […]

Sequence of Abl SH3 Domäne (P00519 61-121 limits assumed): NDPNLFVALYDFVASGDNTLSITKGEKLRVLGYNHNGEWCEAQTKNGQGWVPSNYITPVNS

Sequence | Kd (Abl SH3 Domäne) [µM] | Kd (Lck-SH3 [1]) [µM] | Kd (PI3K SH3 Domäne) [µM] | Kd (Hck-SH3) [µM] | Bindung an die Lck-SH3 (Spot-Intensität) (Lck-SH3 [2]) | relative Lck-SH3-Bindungsaktivität (GST-Lck-SH3)
HSKYPLPPLPSL [PD1] | > 300 | 48.7 ± 1.65 | 112 ± 10.1 | 0.23 ± 0.03 | – | –
HSKRPLPPLPSL [PD1-R] | > 300 | 23.1 ± 1.97 | 13.1 ± 0.48 | 0.47 ± 0.02 | – | –
HFKRPLPPLPSL [PD1-R(-5)F, substitution variant of PD1-R found on PepSpot membrane] | – | – | – | – | stärkste Bindung | –
HTLQIPQHATSF | – | – | – | – | – | nicht bindende
